# Measurements as given in patent US20240353338A1 (priority 2023, published 2024).
# Test system: early Delta variant of SARS-CoV-2
# Assay type: cell-based
compound,measurement,value
C[C@@H](OC(C)(C)C)[C@H](NC(=O)OCc1ccccc1)C(=O)N[C@@H](CC1CCCCC1)C(=O)N[C@H](C=O)C[C@@H]1CCNC1=O [MPI8],antiviral effectiveness (virus growth by reverse transcriptase quantitative PCR),inhibition of virus growth
